{"source": "patent US11807852B2", "about": "“Compositions and methods for reactivating latent immunodeficiency virus” (The J. David Gladstone Institutes, a testamentary trust …, priority 2014, dated 2023)", "key": {"[1]": {"test_system": "J-Lat A72 cell line (LTR-GFP)", "details": "A72 J-Lat cells; for activation of GFP expression / reactivation of the HIV-LTR: single agent", "method": "J-Lat (clones A2 and A72) cell lines were cultured as described in Jordan et al., EMBO J. 2003 Apr. 15:22(8):1868-77. Human αCD3/αCD28 beads (Life Technologies) were used at a concentration of 1 bead/cell ratio. JQ1 (Sigma-Aldrich) was used at a concentration of 0.1-10 μM. Ingenol 3,20-dibenzoate (Sigma-Aldrich) was used at concentrations of 5-200 nM, and SAHA (Sigma-Aldrich) was used at concentrations of 110 nM, 330 nM, or 1 μM.\nHEK293T cells were obtained from the American Type Culture Collection. J-Lat (clones A2, A72, and 5A8) cell lines were described (Chan et al., 2013; Jordan et al., 2003). HEK293T cells were cultured in DMEM supplemented with 10% FBS, 1% L-glutamine and 1% penicillin-streptomycin (Life Technologies). J-Lat cells were cultured in RPMI supplemented with 10% FBS, 1% L-glutamine and 1% penicillin-streptomycin (Life Technologies). […] TNFα (Sigma-Aldrich) was used at 0.5-10 ng/ml. Human αCD3/αCD28 Dynabeads (Invitrogen) were used at a 1 bead/cell ratio. JQ1 (Cayman Chemical) was used at 0.1-10 μM. Ingenol 3,20-dibenzoate (Santa Cruz Biotechnology) was used at 5-200 nM, and SAHA (Merck) was used at 110 nM, 330 nM, or 1 μM. Phorbol 12-myristate 13-acetate (PMA) (Sigma) was used at 10 nM and ionomycin (Sigma) was used at a concentration of 500 nM. UNC926 (Tocris Bioscience) was used at a concentration of 10 nM-100 μM. AZ505. AZ506, and AZ391 were used at a concentration of 10 nM-10 μM.\nShRNA-expressing lentiviral vectors were purchased from Sigma-Aldrich. The pLKO.1 vector containing a scrambled shRNA was used as control. […] J-Lat 5A8, A72 and A2 cells were spininfected with virus (1 ng of p24 per 10^6 cells) containing shRNAs against KMTs or nontargeting control shRNAs and were selected with puronycin (2 μg/ml: Sigma). After 7 days of selection, cells were treated with the indicated concentration of drugs. The percentage of GFP^+ cells was determined after 18 h using a MACSQuant VYB FACS analyzer (Miltenyi Biotech GmbH). Cell viability was monitored by forward-and-side scatter analysis. Analysis was conducted on 3×10,000 live cells per condition. Data were analyzed using FlowJo 9.5 (Tree Star)."}, "[2]": {"test_system": "latent HIV-1 in primary CD4+ T cells", "assay": "Primary T-cell model of HIV latency (Greene model), NL4-3-Luc luciferase", "format": "cell-based", "method": "Peripheral blood mononuclear cells (PBMC) were isolated by Ficoll-Hypaque density gradient centrifugation of buffy coats from HIV-seronegative donors (Blood Centers of the Pacific). PBMCs were immediately processed to isolate CD4^+ T cells. Total CD4^+ T cells were isolated by negative selection, according to manufacturer's protocol, with the EasySep CD4^+ T-cell Enrichment Kit (Stem Cell Technologies). Isolated CD4^+ T cells were cultured in RPMI as described above at a concentration of 1×10^6 cells/ml for 24 h before HIV infection.\nCD4^+ T cells were counted, collected as pellets by centrifugation at 1500 rpm for 5 min at room temperature, and resuspended in the appropriate volume of concentrated viral NL4-3-Luc supernatant. Typically, 50-200 ng of p24Gag per 4×10^5 CD4^+ T cells were used. Spinoculations with NL4-3-Luc virus were performed in 96-well V-bottom plates with up to […] HLAC or CD4 T cells per well. All spinoculations were performed in volumes of 200 μl or less. Cells and virus were centrifuged at 2000 rpm for 1.5-2 h at room temperature. After spinoculation, cells were pooled and cultured at a concentration of 1×10^6 cells/ml in RPMI 1640 containing 10% FBS and supplemented with 5 μM saquinavir for 3 days to prevent residual spreading infection. Saquinavir was purchased from Sigma.\nFor reactivation of latent HIV-1 provirus, cells were counted and collected as pellets by centrifugation at 1500 rpm for 10 min. Cells were then plated in 96-well U-bottom plates at concentrations of 1×10^6/200 μl in the presence of the indicated activator. Unless otherwise indicated, cells were cultured either in medium alone or stimulated with 5 μg/ml phytohemagglutinin (PHA) (Sigma), 10 ng/ml TNF-α, anti-CD3+anti-CD28 beads at a ratio of 1:1. SAHA, JQ1 and X2 were tested at the indicated concentrations. Cells were harvested 48 hr after stimulation, washed one time with PBS, and lysed in 60 μl of Cell Lysis Buffer (Promega). After 15 min of lysis, the luciferase activity in cell extracts was quantified with a BD Monolight Luminometer after mixing 20 μl of lysate with 100 μl of substrate (Luciferase Assay System-Promega). Relative light units were normalized to protein content determined by BCA assay (Pierce). Cell survival rates were measured by flow cytometry immediately before lysis.\nSince X2 activated HIV from latency in A2 and A72 cell lines, this compound was tested in a primary T-cell model of latency (Lassen, Greene). In this model, CD4+ T cells were infected in a single-round infection with HIV clone NL4-3-Luc to generate a latent infection in vitro. To reactivate latent HIV-1, cells were treated with the indicated compounds or a combination of PHA/IL-2 as a control for maximal activation. X2 in combination with JQ1 reactivated latent HIV-1 at 8-25% of the rate achieved by costimulation with PHA/IL-2 (FIG. 9). X2 in combination with Ingenol 3,20-dibenzoate reactivated latent HIV-1 at 30-85% of the rate achieved by costimulation with PHA/IL-2 (FIG. 10)."}, "[3]": {"details": "cited from earlier work"}}, "note": "Entries after “also recorded” stand apart in the source; their conditions may differ. Like-named read-outs stand apart in the source and are kept apart here.", "data": [{"smiles": "N#Cc1cc(C(=O)NCCCN2CCCC2)cc(-c2ccccc2N2CCN(CCc3c[nH]c4ccccc34)CC2)c1", "note": "[AZ391]", "values": [{"measurement": "reactivation of HIV-LTR, combination effect", "setting": "[1]; co-treatment with JQ1", "result": "more than additive effects"}, {"measurement": "reactivation of HIV-LTR, combination effect", "setting": "[1]; co-treatment with SAHA", "result": "less"}, {"measurement": "reactivation of HIV-LTR, combination effect", "setting": "[1]; co-treatment with ingenol 3,20-dibenzoate", "result": "practically no combination effect"}, {"measurement": "GFP+ cells", "setting": "[1]; high concentrations (5 and 10 μM)", "result": "up to 30%"}, {"measurement": "activation of GFP expression / reactivation of the HIV-LTR", "setting": "[1]", "result": "activated GFP expression at high concentrations"}, {"measurement": "activation of GFP expression / reactivation of the HIV-LTR", "setting": "[1]; listed as X2", "result": "the same effect was observed in A72 cells"}, {"measurement": "reactivation of latent HIV-1 as % of the rate achieved by costimulation with PHA/IL-2", "setting": "[2]; in combination with Ingenol 3,20-dibenzoate", "result": "30-85%"}, {"measurement": "reactivation of latent HIV-1 as % of the rate achieved by costimulation with PHA/IL-2", "setting": "[2]; in combination with JQ1", "result": "8-25%"}, {"measurement": "reactivation of latent HIV-1, synergy", "setting": "[2]; with JQ1", "result": "synergy"}, {"measurement": "reactivation of latent HIV-1, combination effect", "setting": "[2]; with SAHA, listed as X2", "result": "modest activation; also recorded: minimal synergy"}, {"measurement": "reactivation of latent HIV-1, synergy", "setting": "[2]; with ingenol 3,20-dibenzoate", "result": "synergy"}, {"measurement": "cell permeability", "setting": "[3]", "result": "cell-permeable"}]}]}
